# Assay results reported in patent US20110296540A1, “ASSAY FOR SCREENING ANTIDEPRESSANTS” (priority 2008, published 2011).
# Like-named read-outs stand apart in the source and are kept apart here.
# Tests used:
# [1] = system: C57BL/6Ntac mice; experiment: Forced Swim Test, chronic corticosterone model; type: in vivo; settings: for immobility duration (FST): mean±SEM
# [2] = system: β-arrestin 2
# Procedure: (§1) Tissue preparation: Animals were sacrificed by cervical dislocation. Selected brain regions were dissected and placed in tubes containing RNAlater (Ambion), incubated at 4 degrees C. overnight and stored at −80 degrees C. until processing.
# (§2) Brain regions (10-20 mg) were homogenized for 20 sec at medium speed in 1.25 ml lysis/denaturation buffer (Ambion) using an Autogizer™ (Tomtec). Total RNA was isolated from 100-300 ul aliquots of the homogenate using the RNAqueous™ 96 automated kit (Ambion) according to the manufacturer's protocol. A second DNase I digestion was incorporated after elution of the RNA from the Ambion filter plate to remove residual genomic DNA. Digestion was performed for 1 hr at room temperature using DNase I™ (Invitrogen) and the buffer supplied with the enzyme. After inactivation of the DNase with EDTA and heat, the RNA was desalted with a Multiscreen™ filter plate (Millipore) and stored at −80° C. Conversion of total RNA into first strand cDNA was accomplished with Superscript II™ enzyme (Invitrogen) followed by desalting over a Multiscreen plate. Approximately 1 ug of total RNA was used for each cDNA reaction. The yield of cDNA was determined using Quant-iT Oligreen™ reagent (Invitrogen). Prior to the Oligreen assay, total RNA carried over from the cDNA reaction was hydrolyzed with NaOH and heat, followed by neutralization with Tris buffer. This treatment eliminates any contribution of the RNA to the Oligreen signal. The unknown cDNA samples were compared to a standard curve derived using a 18mer oligonucleotide. Replica cDNA plates containing 3 ng of cDNA per well were prepared using an Evolution P3™ workstation (PerkinElmer). Each animal in a given experiment was represented by one well on each plate and each plate always contained the control and treatment groups.
# (§3) Quantitative PCR (qPCR) was carried out in 25 ul reactions using Full Velocity™ enzyme (Stratagene). Plates were run on either a Stratagene MX3000P™ or an Applied Biosystems 7900 HT instrument. The cycling parameters were set based on recommendations from the enzyme manufacturer. One gene expression profile was analyzed per PCR plate and duplicate plates were run for each gene. Two housekeeping genes, cyclophilin and GAPDH, were included in the gene list and were used to normalize the expression results obtained from the other genes of interest (see data analysis section). The sequences of the primers and probes for each gene are listed in supplemental table 1. Duplicate cycle thresholds (Ct values) were obtained for each gene/region and averaged. […] After converting delta Ct values to percentage, the mean and SEM of each animal group (controls and experimental) was calculated.
# [3] = system: Giα2; settings: hypothalamus
# Procedure: as §1, §2, §3
# [4] = system: β-arrestin 1; settings: hypothalamus
# Procedure: as §1, §2, §3
# [5] = system: dentate gyrus of the adult mouse hippocampus; experiment: BrdU labeling for proliferation and survival study, corticosterone model
# Procedure: After anesthesia with ketamine (100 mg/kg), mice were perfused transcardially (cold saline for 2 min, followed by 4% cold paraformaldehyde at 4° C.). […] For DAB staining, sections were mounted on slides and boiled in citric acid (pH 6.0) for 5 min, rinsed with PBS, and treated with 0.01% trypsin in Tris/CaCl2 for 10 min. Brain sections were incubated for 30 min with 2N HCl and blocked with 5% NGS. Sections were then incubated overnight at room temperature with anti-mouse BrdU (1:100). After washing with PBS, sections were incubated for 1 hr with secondary antibody (1:200 biotinylated goat anti-mouse) followed by amplification with an avidinbiotin complex. The staining was visualized with DAB.
# [6] = system: C57BL/6Ntac mice
# From the text: The novelty suppressed feeding paradigm (NSF) is a conflict test that elicits competing motivations: the drive to eat and the fear of venturing into the center of brightly lit arena. […] Briefly, the testing apparatus consisted of a plastic box (50×50×20 cm), the floor of which was covered with approximately 2 cm of wooden bedding. Twenty-four hours prior to behavioral testing, all food was removed from the home cage. At the time of testing, a single pellet of food (regular chow) was placed on a white paper platform positioned in the center of the box. An animal was placed in a corner of the box, and a stopwatch was immediately started. The latency to eat (defined as the mouse sitting on its haunches and biting the pellet with the use of forepaws) was timed. Immediately afterwards, the animal was transferred to its home cage, and the amount of food consumed by the mouse in the subsequent 5 min was measured, serving as a control for change in appetite as a possible confounding factor. Each mouse was weighed before food deprivation and before testing to assess the percentage of body weight loss (data not shown).
# Mice were anesthetized with ketamine and xylazine (100 mg/ml ketamine; 20 mg/ml xylazine), placed in a stereotaxic frame and exposed to cranial irradiation using a Siemens Stabilopan X-ray system operated at 300 kVp and 20 mA. […] Dosimetry was done using a Capintec Model PR06G electrometer ionization chamber and Kodak Readypack Radiographic XV films. The corrected dose rate was approximately 1.8 Gy per min at a source to skin distance of 30 cm. The procedure lasted 2 min and 47 sec, delivering a total of 5 Gy. Three 5 Gy doses were delivered on days 1, 4 and 8.
# [7] = system: proliferating neural progenitors; experiment: BrdU labelling of cell proliferation in the dentate gyrus; type: in vivo, mice
# Procedure: Immunohistochemistry and confocal imaging. Mice were anesthetized with ketamine/xylazine (100 and 7 mg/kg, respectively) and transcardially perfused (cold saline, followed by 4% cold paraformaldehyde in PBS). […] Immunohistochemistry was performed in the following steps: 2 h incubation in 1:1 formamide/2×SSC at 65° C., 5 min rinse in 2×SSC, 30 min incubation in 2N HCl at 37° C., and 10 min rinse in 0.1M boric acid, pH 8.5, 2 h incubation in 0.1M PBS with 0.3% Triton X-100, and 5% normal donkey serum. Sections were then incubated overnight at 4° C. in primary antibodies for doublecortin (goat; 1:500; Santa Cruz Biotechnology, Santa Cruz, Calif.), bromodeoxyuridine (BrdU; rat; 1:100; Serotec, Oxford, UK), and neuronal-specific nuclear protein (NeuN) (mouse; 1:500; Chemicon, Temecula, Calif.). Biotinylated or fluorescent secondary antibodies were used. All secondary antibodies were purchased from Jackson ImmunoResearch (West Grove, Pa.). DCX staining for Sholl analysis was done as follows: sections were rinsed in PBS, treated with 1% H2O2 in 1:1 PBS and methanol for 15 min to quench endogenous peroxidase activity (and to enhance dendritic staining), incubated in 10% normal donkey serum and 0.3% Triton X-100 for 30 min, and then incubated overnight at 4° C. in primary antibody for doublecortin. […] Stereological procedure was used to quantify labeled cells (Malberg et al., 2000 ? ). […]
# [8] = system: DCX+ immature granule cells; experiment: DCX immunohistochemistry: number, dendritic morphology and Sholl analysis of immature granule cells; type: in vivo, mice
# Procedure: Immunohistochemistry and confocal imaging. Mice were anesthetized with ketamine/xylazine (100 and 7 mg/kg, respectively) and transcardially perfused (cold saline, followed by 4% cold paraformaldehyde in PBS). […] Immunohistochemistry was performed in the following steps: 2 h incubation in 1:1 formamide/2×SSC at 65° C., 5 min rinse in 2×SSC, 30 min incubation in 2N HCl at 37° C., and 10 min rinse in 0.1M boric acid, pH 8.5, 2 h incubation in 0.1M PBS with 0.3% Triton X-100, and 5% normal donkey serum. Sections were then incubated overnight at 4° C. in primary antibodies for doublecortin (goat; 1:500; Santa Cruz Biotechnology, Santa Cruz, Calif.), bromodeoxyuridine (BrdU; rat; 1:100; Serotec, Oxford, UK), and neuronal-specific nuclear protein (NeuN) (mouse; 1:500; Chemicon, Temecula, Calif.). Biotinylated or fluorescent secondary antibodies were used. All secondary antibodies were purchased from Jackson ImmunoResearch (West Grove, Pa.). DCX staining for Sholl analysis was done as follows: sections were rinsed in PBS, treated with 1% H2O2 in 1:1 PBS and methanol for 15 min to quench endogenous peroxidase activity (and to enhance dendritic staining), incubated in 10% normal donkey serum and 0.3% Triton X-100 for 30 min, and then incubated overnight at 4° C. in primary antibody for doublecortin. After secondary antibody incubation, sections were developed using Vector ABC kit and DAB kit. Bright-field images were taken with a Zeiss (Oberkochen, Germany) Axioplan-2 upright microscope. Stereological procedure was used to quantify labeled cells (Malberg et al., 2000 ? ). All cell counting for triple-stained sections were done using a Zeiss LSM 510 META confocal microscope.
# Sholl analysis. DCX-positive (DCX^+) granule cells with tertiary, relatively untruncated dendritic branches or BrdU/DCX double-positive cells (one DCX^+ cell was traced for each […] hippocampal slice; n=10-12 cells per brain for DAB-stained sections; n=4-8 cells per brain for fluorescent staining, 5 mice per group) were traced using camera lucida at 40× magnification (Neurolucida; MicroBrightField, Williston, Vt.). Adult SvEvTac129 mice (16-20 weeks old) were used to obtain sparsely labeled DCX^+ cells. DCX immunohistochemistry was done to maximize the labeling of dendrites (see above methods). Sholl analysis for dendritic complexity was performed using the accompanying software (NeuroExplorer; MicroBrightField), calculating dendritic complexity including dendritic length and number of intersections (branch points). All samples were number coded, and analysis was done blind to treatment.
# Next, the DCX^+ cells were subcategorized according to their dendritic morphology: (1) DCX^+ cells with no tertiary dendritic processes (FIG. 2A), and (2) DCX^+ cells with complex, tertiary dendrites (FIG. 2B). […] The results are mean±SEM of DCX^+ cells with tertiary branches.
# Double fluorescent immunohistochemistry for BrdU and DCX were performed on hippocampal sections. BrdU cells that were also DCX' were identified and then Sholl analysis on the double-positive cells was performed (FIG. 3 D-G).
# [9] = system: C57BL/6Ntac mice; experiment: Changes in coat state
smiles,measurement,setting,value
CNCCC(Oc1ccc(C(F)(F)F)cc1)c1ccccc1 (centres unmarked) [fluoxetine],immobility duration (FST),"[1]; corticosterone treated animals, alone or with antidepressant",311.4 s
same,immobility duration (FST),[1]; non-corticosterone treated animals,302.9 s
same,"duration of immobility (FST), effect","[1]; two-way ANOVA, corticosterone 7 weeks, antidepressants last 3 weeks",decreased
same,β-arrestin 2 levels,"[2]; hippocampus, fluoxetine",opposite effect
same,β-arrestin 2 expression,"[2]; hypothalamus, fluoxetine in corticosterone-treated mice",reversed
same,Giα2 expression,[3],totally reversed
same,β-arrestin 1 expression,[4],totally reversed
same,change in cell proliferation induced by corticosterone,[5]; 3 weeks of fluoxetine 18 mg/kg/day,completely reversed
same,effect of fluoxetine on survival,"[5]; in the presence of corticosterone, compared with controls",even more pronounced
same,hippocampal cell proliferation,"[5]; non-corticosterone treated C57BL/6Ntac mice, chronic fluoxetine",did not affect
same,effects of fluoxetine to reverse the anxiety/depressive-like state in the NSF paradigm,"[6]; after hippocampal irradiation, chronic corticosterone",completely abolished
same,corticosterone-induced change in the latency to feed (NSF),[6]; chronic fluoxetine 18 or imipramine 40 mg/kg/day in corticosterone-treated mice,reversed
same,latency to feed (NSF),[6]; irradiated corticosterone/fluoxetine group,546.2 s
same,latency to feed (NSF),[6]; sham corticosterone/fluoxetine group,371.3 s
same,number of BrdU cells in the granule cell layer (GCL),[7]; chronic (28 d) fluoxetine 18 mg/kg/d vs vehicle,increased
same,number of BrdU+ cells,"[7]; sham animals of the irradiation experiment, 28 d of fluoxetine",increase
same,dendritic length of DCX+ cells (Sholl analysis),[8]; chronic (28 d),increased
same,number of DCX+ cells with tertiary dendrites,[8]; chronic (28 d),significantly increased
same,number of intersections of DCX+ cells (Sholl analysis),[8]; chronic (28 d),increased
same,dendritic length in 3-week-old granule cells (BrdU/DCX double-positive),[8]; three weeks of fluoxetine,enhanced
same,number of intersections in 3-week-old granule cells (BrdU/DCX double-positive),[8]; three weeks of fluoxetine,enhanced
same,deterioration of the coat state induced by chronic corticosterone,[9]; 3 week fluoxetine regimen,reversed
same,coat state total score (sum of five body parts),"[9]; chronic corticosterone, without or with 3 week fluoxetine, mean±SEM",1.80±0.08
